# Test results taken from article PMC8062543 (Scientific Reports, 2021).
# B1: MtmGDH without His6-tag (Methylotuvimicrobium alcaliphilum 20Z) (protein)
# chain: MPLIIEKSLAGQRALVTGSSSGIGAAIAVALAEAGARVAINYMSDAEGAGEIVDQIQALGGEAIAVQADVSQEDQVIAMFQQVIGTWGSLDILVNNAGIQLDAPFVEMTLKQWETVMAVNLTGQFLCAREAVKEFLRRGVVPELSCSAGKIICNSSVHDIIPWAGHVNYSASKGGLLMFMKSLAQEVAHDKIRVNAVSPGAIKTPINRSAWETPEAEADLLKLIPYERVGESADIARAVVWLASDASDYVVGTTLYIDGGMTLYPGFREGG
# notes: full ORF, His6 tag cut off with Usp2-His6 protease (not repurified afterwards), E. coli Rosetta (DE3), pET28Ub-shHis; homotetramer 112 kDa
# B2: MtmGDH (Methylotuvimicrobium alcaliphilum 20Z) (protein)
# chain: B1 chain
# notes: full ORF, N-terminal His6 kept, E. coli Rosetta (DE3), pET28
# B3: MtmGntK (Methylotuvimicrobium alcaliphilum 20Z) (protein)
# chain: MNSSNDSRHRAARVVIIGGVSGCGKSTVGRALAEYLGWSFIEGDAFHSEANIEKMRRGEALDDNDRRPWLESLHNEIIYHLDRGISAVMACSALKASYREILCGDEVNVSFVFLSCSRESLHRRLTTRQGHFLGAELLDSQLAAFESSHDILLIDSEQAVETLVESIADWLAYSGSECDET
# notes: C-terminal His6, E. coli Rosetta (DE3), pET30; ~20 kDa, monomer
# Columns and labels:
# MtmGntK = biological target: T1, MtmGntK (Methylotuvimicrobium alcaliphilum, UniProt G4T089); assay: biochemical; parameters: recombinant gluconate kinase activity, coupled to 6-phosphogluconate dehydrogenase, NADPH at 340 nm, effect of added metabolite; conditions: read-out: % of control remaining; for remaining activity at 5000 µM: 5 mM; for remaining activity at 1000 µM: 1 mM
# T1 construct: gene gntK; C-terminal His6, E. coli Rosetta (DE3), pET30; ~20 kDa, monomer
# T1 sequence (G4T089 1-181): B3 chain
# Experimental: GntK activity assay The activity of GntK was measured in the reaction mixture containing 50 mM Tris–HCl buffer, pH 9.0; 8 mM MgCl2; 6 mM gluconate; 5 mM ATP; 0.3 mM NADP^+; 5U 6-phosphogluconate dehydrogenase (6PGDH, Sigma-Aldrich) as a coupling enzyme and ~ 15 µg GntK. The activity of Mb. luteus GntK was assayed in 50 mM Tris–HCl buffer (pH 8.0). The reaction was started with 6 mM sodium gluconate. To study the effect of pH, the following buffers were used (50 mM): Carbonate (pH 9.0–10.5), TAPS-NaOH (pH 8.0–9.0), Tris–HCl (pH 7.5–9.0), K-phosphate (pH 7.0–8.0), MES-NaOH (pH 5.0–6.0) or citrate (pH 4.0–5.0). […] The NAD^+/NADP^+ reduction rates were measured at 340 nm with a UV-1700 spectrophotometer (Shimadzu). The apparent Km and Vmax values were calculated using Sigma Plot (version 10). The exponentially grown cells were used to measure enzymatic activity in cell-free extracts.
# MtmGDH [1] = biological target: T2, MtmGDH (Methylotuvimicrobium alcaliphilum, UniProt G4T0V2); assay: biochemical; conditions: read-out: % of control remaining; for remaining activity at 1000 µM: 1 mM; for remaining activity at 5000 µM: 5 mM
# T2 construct: gene gdhI; full ORF, N-terminal His6 kept, E. coli Rosetta (DE3), pET28
# T2 sequence (G4T0V2 1-271): B1 chain
# Experimental: GDH activity assay The activity of GDH from Mtm. alcaliphilum was measured by recording the rate of NAD^+ or NADP^+ reduction at 30 °C. 1 mL of the reaction mixture routinely contained 50 mM Glycine–NaOH buffer, pH 10.0; 0.3 mM NAD(P)^+ and ~ 1 μg of GDH. The reaction was started with 200 mM D-glucose. The activity of Mb. luteus GDH was measured using 20 mM D-glucose in 50 mM Tris–HCl, pH 8.5. […] The effect of pH on the activity was studied using the following buffers (50 mM): Glycine–NaOH (pH 9.0–10.5), CHES-NaOH (pH 8.5–10.0), Tris–HCl (pH 7.5–9.0), and MES-NaOH (pH 5.0–7.0). KCl, NH4Cl or NaCl at a final concentration of 50 mM were added to test the effect of monovalent ions on the enzyme activity. The effects of divalent metals were assessed using MgCl2, MnCl2, [compound left out], CuCl2, CdCl2, NiCl2 or ZnCl2 at a final concentration of 1 mM. Glucose-6-phosphate, glucose-1-phosphate, fructose-6-phosphate, fructose-1,6-bisphosphate (5 mM), pyruvate, PEP, oxaloacetate, lactate, malate, isocitrate, citrate, succinate, serine, α-ketoglutarate, ATP, ADP, AMP and PPi (1 mM) were examined as potential inhibitors or activators. To determine the optimal temperature for enzyme activity, the reaction was carried out in a temperature range of 10–70 °C.
# MbGDH = biological target: T3, MbGDH (Methylobacter luteus, UniProt Z9JUG8QEO0); assay: NAD(P)H formation at […] nm; type: biochemical; conditions: inhibitor; 10 mM in results (5 mM in methods); pH 8.5 Tris-HCl, 20 mM D-glucose
# T3 construct: gene gdh; full ORF, N-terminal His6 (pET28Ub-shHis)
# T3 sequence (Z9JUG8QEO0 1-271 limits assumed): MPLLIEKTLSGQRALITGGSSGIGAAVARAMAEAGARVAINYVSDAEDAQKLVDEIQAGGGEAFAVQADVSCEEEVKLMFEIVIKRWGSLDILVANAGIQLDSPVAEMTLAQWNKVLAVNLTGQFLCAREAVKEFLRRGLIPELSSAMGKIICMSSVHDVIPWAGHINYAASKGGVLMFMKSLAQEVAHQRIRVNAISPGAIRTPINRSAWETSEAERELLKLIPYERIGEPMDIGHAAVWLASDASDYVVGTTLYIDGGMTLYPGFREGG
# MtmGDH [2] = biological target: T4, MtmGDH (Methylotuvimicrobium alcaliphilum, UniProt G4T0V2); assay: NAD(P)H formation at […] nm; type: biochemical; conditions: activator; pH 10.0 glycine-NaOH, 30 °C, 200 mM D-glucose
# T4 construct: gene gdhI; full ORF, N-terminal His6 kept, E. coli Rosetta (DE3), pET28
# [3] = tested on: T5, NC(=O)c1ccc[n+]([C@@H]2O[C@H](COP(=O)(O)OP(=O)(O)OC[C@H]3O[C@@H](n4cnc5c(N)ncnc54)[C@H](O)[C@@H]3O)[C@@H](O)[C@H]2O)c1; assay: purified protein; type: biochemical, Methylobacter luteus; conditions: pH 8.5 Tris-HCl, D-glucose
# T5 construct: full ORF, N-terminal His6 (pET28Ub-shHis)
# [4] = tested on: T6, NC(=O)c1ccc[n+]([C@@H]2O[C@H](COP(=O)(O)OP(=O)(O)OC[C@H]3O[C@@H](n4cnc5c(N)ncnc54)[C@H](OP(=O)(O)O)[C@@H]3O)[C@@H](O)[C@H]2O)c1; assay: purified protein; type: biochemical, Methylobacter luteus; conditions: pH 8.5 Tris-HCl, D-glucose
# T6 construct: full ORF, N-terminal His6 (pET28Ub-shHis)
# [5] = biological target: glucose dehydrogenase (GDH) from Methylobacter luteus IMV-B-3098 (Methylobacter luteus IMV-B-3098); assay: SEC; gel filtration on XK 16/100 Superdex 200, 0.02 M Tris-HCl pH 7.0 with 0.5 M NaCl, calibrated with protein markers; GDHs with the cut-off His-tag
# [6] = biological target: glucose dehydrogenase (GDH) from Methylotuvimicrobium alcaliphilum 20Z (Methylotuvimicrobium alcaliphilum 20Z); assay: as above
# purified protein [7] = substrate: NC(=O)c1ccc[n+]([C@@H]2O[C@H](COP(=O)(O)OP(=O)(O)OC[C@H]3O[C@@H](n4cnc5c(N)ncnc54)[C@H](O)[C@@H]3O)[C@@H](O)[C@H]2O)c1; assay: purified protein; type: biochemical, Methylotuvimicrobium alcaliphilum; conditions: pH 10.0 glycine-NaOH, 30 °C, 200 mM D-glucose
# purified protein [8] = substrate: NC(=O)c1ccc[n+]([C@@H]2O[C@H](COP(=O)(O)OP(=O)(O)OC[C@H]3O[C@@H](n4cnc5c(N)ncnc54)[C@H](OP(=O)(O)O)[C@@H]3O)[C@@H](O)[C@H]2O)c1; assay: purified protein; type: biochemical, Methylotuvimicrobium alcaliphilum; conditions: pH 10.0 glycine-NaOH, 30 °C, 200 mM D-glucose
# purified protein [9] = substrate: O=C(O)[C@H](O)[C@@H](O)[C@H](O)[C@H](O)CO; assay: purified protein; type: biochemical, Methylotuvimicrobium alcaliphilum; conditions: pH 9.0 Tris-HCl, 8 mM MgCl2, 5 mM ATP
# purified protein [10] = substrate: Nc1ncnc2c1ncn2[C@@H]1O[C@H](COP(=O)(O)OP(=O)(O)OP(=O)(O)O)[C@@H](O)[C@H]1O; assay: purified protein; type: biochemical, Methylotuvimicrobium alcaliphilum; conditions: pH 9.0 Tris-HCl, 8 mM MgCl2, 6 mM gluconate, Hill n = 1.6
molecule,measurement,setting,value
Nc1ncnc2c1ncn2[C@@H]1O[C@H](COP(=O)(O)OP(=O)(O)O)[C@@H](O)[C@H]1O [ADP],remaining activity at 5000 µM,MtmGntK,71 ± 1%
same,remaining activity at 1000 µM,MtmGDH [1],87 ± 1%
Nc1ncnc2c1ncn2[C@@H]1O[C@H](COP(=O)(O)O)[C@@H](O)[C@H]1O [AMP],remaining activity at 4000 µM,MtmGntK; 4 mM,98 ± 1%
same,remaining activity at 1000 µM,MtmGDH [1],109 ± 1%
Nc1ncnc2c1ncn2[C@@H]1O[C@H](COP(=O)(O)OP(=O)(O)OP(=O)(O)O)[C@@H](O)[C@H]1O [ATP],remaining activity at 1000 µM,MtmGDH [1],93 ± 2%
O=C(O)CC(O)(CC(=O)O)C(=O)O [Citrate],remaining activity at 1000 µM,MtmGDH [1],119 ± 1%
"O=P(O)(O)OC[C@H]1O[C@@](O)(COP(=O)(O)O)[C@@H](O)[C@@H]1O [Fructose-1,6-bisphosphate]",remaining activity at 5000 µM,MtmGDH [1],103 ± 1%
O=C(CO)[C@@H](O)[C@H](O)[C@H](O)COP(=O)(O)O [Fructose-6-phosphate],remaining activity at 5000 µM,MtmGDH [1],101 ± 1%
O=P(O)(O)O[C@H]1O[C@H](CO)[C@@H](O)[C@H](O)[C@H]1O [Glucose 1-Phosphate],remaining activity at 5000 µM,MtmGntK,96 ± 2%
O=P(O)(O)O[C@H]1O[C@H](CO)[C@@H](O)[C@H](O)[C@H]1O [Glucose-1-phosphate],remaining activity at 5000 µM,MtmGDH [1],103 ± 1%
CC(O)C(=O)O (stereo not drawn) [Lactate],remaining activity at 1000 µM,MtmGDH [1],116 ± 1%
O=C(O)CC(O)C(=O)O (stereo not drawn) [Malate],remaining activity at 1000 µM,MtmGDH [1],95 ± 5%
O=C(O)CC(=O)C(=O)O [Oxaloacetate],remaining activity at 1000 µM,MtmGntK,101 ± 1%
same,remaining activity at 1000 µM,MtmGDH [1],107 ± 3%
C=C(OP(=O)(O)O)C(=O)O [Phosphoenolpyruvate],remaining activity at 5000 µM,MtmGntK,84 ± 1%
same,remaining activity at 1000 µM,MtmGDH [1],94%
CC(=O)C(=O)O [Pyruvate],remaining activity at 3000 µM,MtmGntK; 3 mM,95 ± 2%
same,remaining activity at 1000 µM,MtmGDH [1],96 ± 1%
N[C@@H](CO)C(=O)O [Serine],remaining activity at 1000 µM,MtmGDH [1],108 ± 3%
O=C(O)CCC(=O)O [Succinate],remaining activity at 1000 µM,MtmGDH [1],99 ± 1%
O=P(O)(O)OC[C@H]1OC(O)[C@H](O)[C@@H](O)[C@@H]1O (stereo partly drawn) [glucose-6-phosphate],remaining activity at 5000 µM,MtmGntK,96 ± 1%
same,% decrease of activity at 10 mM,MbGDH,40%
O=C(O)C[C@H](C(=O)O)[C@@H](O)C(=O)O [isocitrate],% increase of activity at 1 mM,MtmGDH [2],40%
same,remaining activity at 1000 µM,MtmGDH [1],140 ± 4%
O=C(O)CCC(=O)C(=O)O [α-Ketoglutarate],remaining activity at 1000 µM,MtmGntK,90 ± 2%
same,remaining activity at 1000 µM,MtmGDH [1],104 ± 1%
MbGDH (Methylobacter luteus),Km,[3],120 ± 20 µM
same,kcat,[3],0.05 s⁻¹
same,Km,[4],1600 ± 300 µM
same,kcat,[4],0.067 s⁻¹
glucose dehydrogenase (GDH) from Methylobacter luteus IMV-B-3098 (enzyme),stoichiometry N,[5],4
glucose dehydrogenase (GDH) from Methylotuvimicrobium alcaliphilum 20Z (enzyme),stoichiometry N,[6],4
B1,Km,purified protein [7],390 ± 60 µM
same,Km,purified protein [8],340 ± 20 µM
B2,Km,purified protein [7],360 ± 20 µM
same,kcat,purified protein [7],0.177 s⁻¹
same,Km,purified protein [8],140 ± 10 µM
same,kcat,purified protein [8],0.00583 s⁻¹
B3,K0.5,purified protein [9],0.6 ± 0.04 mM
same,kcat,purified protein [9],0.00433 s⁻¹
same,K0.5,purified protein [10],1.3 ± 0.2 mM
same,kcat,purified protein [10],0.00867 s⁻¹
